Holding throughout (assay type): in vivo
The subject of data set [1] is Cisplatin-induced uremia. The data set is described as follows: Blood biochemical test (serum BUN and CRE) in cisplatin-induced uremia Sprague-Dawley rat model. On the procedure:
(§1) The intravenous administration was done by fixing an animal into a correction frame, and slowly injecting at a rate of within 1 mL/min through the micro vein using a syringe equipped with 26 gauges needle. The intraperitoneal administration was performed by fixing the animal by a transdormal skin fixation method and intraperitoneally injecting using a syringe equipped with 26 gauges needle.
Serum obtained from the centrifugation was tested for blood urea nitrogen (BUN) and […] (CRE) using a blood biochemical analyzer (7180 Hitachi, Japan).

Data set [2] deals with Cisplatin-induced uremia. In words: Kidney histopathological examination in cisplatin-induced uremia Sprague-Dawley rat model. On the procedure:
as §1
Finally, animals were inhaled with ether on an necropsy day to anesthetize and euthanize, and kidneys were extracted and fixed in a 10% neutral buffered formalin solution, and the fixed tissues were cut, dehydrated, paraffin embedded and hematoxylin & eosin stained to make a specimens for histopathological examination after these histological treatment. And then, the obtained specimen is subjected to speculum using an optical microscope (Olympus BX53, Japan).

Data set [3] can be described thus: Body weight in cisplatin-induced uremia Sprague-Dawley rat model. The following applies: all test substance-administered groups (10 and 20 μg/head, single IV dose 8 h after cisplatin 5 mg/kg IP); Day 7; versus normal control group.
Protocol: Cisplatin-induced uremia was evaluated for the effect of administration of test substance on an improvement of uremia in the Sprague-Dawley rat model. […] Cisplatin was intraperitoneally administered (IP) and test substance was intravenously administered (IV).
Where [4] appears, read: serum, high dose group (20 μg/1 mL/head, single IV), versus induced control group given excipient.

We go through 1 substance from US20200254059A1, “THERAPEUTIC AGENT OF UREMIA CONTAINING ALARIN AS THE MAIN INGREDIENT” (JU TIDE CO., LTD., priority 2017, published 2020).

“Also recorded” adds a separate entry of the source.

With “H-Ala-Pro-Ala-His-Arg-Ser-Ser-Thr-Phe-Pro-Lys-Trp-Val-Thr-Lys-Thr-Glu-Arg-Gly-Arg-Gln-Pro-Leu-Arg-Ser-OH-trifluoroacetate salt (H-APAHRSSTFPKWVTKTERGRQPLRS-OH; also: trifluoroacetate salt) [test substance, human-derived alarin, peptide derived from a splice variant of galanin-like peptide (GALP) RNA]”, the “improvement of uremia (overall conclusion)” value in data set [1] (cisplatin-induced uremia model, conclusion from blood biochemistry and histopathology) is “have an effect on the improvement of uremia”. Also, in data set [1] (setting [4]), the “blood urea nitrogen (BUN) level” value is listed as “significantly lower; also recorded: significant difference” and the “creatinine (CRE) level” value was “significantly lower; also recorded: significant difference”. For the same substance, the blood biochemical level result in data set [1] (single dose of 10 μg/1 mL/head and 20 μg/1 mL/head IV, versus control group of excipient) was “tendency to improve”. In addition, the “histopathological examination results, lesion level across doses” value in data set [2] (10 and 20 μg/1 mL/head, single IV dose) is “dose-related change trend and significant changes in lesion level”. In addition, the “level of lesion, histopathological examination of kidney” value in data set [2] (high dose group (20 μg/head, single IV), H&E stained kidney, Day 7, versus control group) was “significantly lower”. Besides, the “weight level measured on the day of necropsy” value in data set [3] was “no significant difference”.
